This passage reports mortality results from patent US7067523B2, “Use of pyrone carboxylates for controlling pests” (Sumitomo Chemical Company, Limited, priority 2002, dated 2006).

This data set deals with Blattela germanica. The data set is described as follows: Topical application to adult female Blattela germanica, mortality after 7 days. The format is in vivo. Conditions: 1 μl of 20 μg/μl acetone solution applied to ventral thorax of adult female, 10 insects per group, triplicate. As for the experimental part: 1 μl of a 20 μg/μl acetone solutions of each of the present compounds No. 1 and the control compound was applied onto the surface of the ventral region of the thorax of adult female Blattela germanica. These insects were kept with a feed (solid feed for rat, Oriental Yeast, Co., Ltd.) and water for 7 days. Subsequently, the insects were examined for death to obtain mortality (10 insects per group, triplicate).
In a similar manner to the Experiment example 1, using a 20 μg/μl acetone solution of each of the present compounds Nos. 2, 3, 4, 5, 6, 7, 10, 11, 13, 14, 15, 16 and 18 instead of the present compound No. 1 and the control compound, the experiment was carried out to obtain mortality of the cockroach.
In a similar manner to the Experiment example 1, using a 2.5 μg/μl acetone solution of each of the present compounds Nos. 5 and 6 instead of the present compound No. 1 and the control compound, the experiment was carried out to obtain mortality of the cockroach.

Regarding `CCOC(=O)c1c(O)cc(C)oc1=O` [Compound No. 1, ethyl 4-hydroxy-6-methyl-2-oxo-2H-pyrane-3-carboxylate], the mortality (usually the share of the test organisms that died) amounted to 100%.

As to `CCC(=O)c1c(O)cc(C)oc1=O` [control compound, 4-hydroxy-6-methyl-3-propanoyl-2-pyrone], the mortality is 30%.
